Experimental data: patent US20250281480A1, “PHARMACEUTICAL DRY POWDER INHALATION FORMULATION” (Bayer Aktiengesellschaft, priority 2021, published 2025)

How the values were obtained:
[1] = Particle size distribution by laser diffraction (D.4); type: physicochemical; settings: after micronization, monohydrate II as starting material, 50 mm spiral jet mill; dry measurement 4 bar
Experimental: All measurements cited in the above tables were obtained by laser diffraction with dry dispersion using compressed air. Measuring in aqueous suspension with surfactants may lead to smaller particle sizes (×90 up to 1 μm smaller).
The particle size analysis data are usually reported as cumulative undersized distribution by volume. The symbol x is used to denote the particle size, which is defined as diameter of a volume equivalent sphere. Most common characteristic values are calculated from the particle size distribution by interpolation. Frequently used are the particle sizes at the undersize values of 10%, 50% and 90% of the volume distribution, denoted as ×10, ×50 and ×90. ×50 is also known as median particle size. The symbol dis widely used to designate the particle size, thus the symbol x may be replaced by the symbol d.

[2] = system: anesthetized thromboxane A2 challenged PAH-minipig; experiment: Haemodynamics in the anesthetized thromboxane challenged minipig (PAH minipig), inhaled nebulized solution: lung selectivity and duration of action; type: in vivo, Göttingen Minipigs; settings: inhaled; for PAP % changes vs prevalue: mean
Experimental: Healthy Göttingen Minipigs® Ellegaard (Ellegaard, Denmark) of both sexes and having a weight of 2-6 kg were used. The animals were sedated by i.m. administration of about 25 mg/kg ketamine and about 10 mg/kg azaperone. Anaesthesia was initiated by i.v. administration of about 2 mg/kg ketamine and about 0.3 mg/kg midazolam. Maintenance of anaesthesia was by i.v. administration of about 7.5-30 mg/kg/h ketamine and about 1-4 mg/kg/h midazolam (rate of infusion 1-4 ml/kg/h) and about 150 μg/kg/h pancuronium bromide (for example Pancuronium-Actavis). After intubation, the animals were ventilated by the ventilator at a constant respiratory volume (10-12 ml/kg, 35 breaths/min; Avea®, Viasys Healthcare, USA, or Engström Carestation, GE Healthcare, Freiburg, Germany) such that an end-tidal CO2 concentration of about 5% was achieved. Ventilation was performed with room air, enriched with about 40% oxygen (normoxia). For the measurement of the haemodynamic parameters such as pulmonary arterial pressure (PAP), blood pressure (BP) and heart rate (HR), catheters were inserted into the carotid artery to measure the blood pressure, and a Swan-Ganz® catheter was introduced in a flow-directed manner via the jugular vein into the pulmonary artery. The haemodynamic signals were recorded and evaluated by means of pressure transducers (Combitransducer, B. Braun, Melsungen, Germany)/amplifiers and Ponemah® as data acquisition software.
After the instruments have been placed into the animals, continuous infusion of a thromboxane A2 analog was initiated to increase the pulmonary arterial pressure. About 0.3-0.75 μg/kg/min of 9,11-didesoxy-9α,11α-epoxymethanoprostaglandine F2α (U-44069; Sigma, cat. no. D0400, or Cayman Chemical Company, cat. no. 16440), dissolved in physiological saline, were infused to achieve an increase of the mean pulmonary arterial pressure to values of over 25 mmHg. 30 minutes after the start of the infusion, a plateau was reached, and the experiment was started.
The test substances were administered as i.v. infusion or by inhalation. For the preparation of the solution for inhalation, the following procedure was adopted: For an animal having a weight of 4 kg, to prepare the stock solution (300 μg/kg), 1.2 mg of the test compound were weighed out and dissolved in a total volume of 3 ml (1% DMSO, 99% 0.2% strength citric acid solution, 1 n aqueous sodium hydroxide solution to adjust the pH to 8). The solution was then diluted to the concentration employed using 0.2% strength citric acid which had been adjusted to pH 8 beforehand with aqueous sodium hydroxide solution. In each test, 3 ml of the solution of test compound per 4 kg animal were nebulized in the inhalation arm of the respiratory circuit using the Aeroneb® Pro nebulizer system. The mean nebulization time was about 7 min from the start of the nebulization.
With respect to a prediction of the duration of action for human studies comparative example 11 was compared in the PAH minipig model after inhaled application to Ventavis® (=Iloprost, 10 μg/kg nominal dose), which we used as a clinical reference. […] Therefore, the duration of action is more than 6 times longer compared to Ventavis in this preclinical animal model.

plasma proteins [3] = experiment: Protein binding via ultrafiltration assay; type: in vitro ADME
Excerpt: For this assay, filter membranes of 30 kDa pore size were used to separate plasma and protein free ultrafiltrate. The driving force for filtration was applied by centrifugation. Prior to protein binding studies, the adsorption (recovery) of the test compound to the ultra-filtration device and the ability of the test compound to pass the filter membrane was checked by filtration of the test compound dissolved in buffer at four concentrations. Sufficient stability of the test compound and an almost complete recovery (≥90% of the actual amount of compound used for the experiment) was a prerequisite for the use of the ultrafiltration method. The amount of organic solvent added to the plasma may not exceed 2% of the total incubation volume. Blood samples were collected in heparinized tubes either pooled (all species except human and monkey) or individually (human and monkey) and were used within 24 h for incubation experiments in blood. Plasma was prepared by centrifugation of the heparinized blood samples. Plasma was stored at −15° C. until use. Plasma stability, Compound recovery, unspecific binding to the membrane and the test device as well as partitioning between blood cells and plasma were controlled. The substance-associated radioactivity was determined by liquid scintillation counting. With this analytical method, it is not possible to distinguish between unchanged substance and radioactive metabolites. For details of the radioanalytical methods and the work up of the samples see Goeller et al. (3). A description of the ultrafiltration method in general was published by Zhang et al. In 2012 (4).

plasma proteins [4] = experiment: Protein binding via Transil assay, human plasma; type: in vitro ADME; settings: all tested species where comparative results are given
Excerpt: The distribution of a test substance between Transil® (phosphatidylcholine lipid bilayers immobilized on silica beads) and plasma is a characteristic feature of any pharmaceutical compound and is dependent on its extent of binding to plasma proteins. By comparing the distribution between Transil® and buffer with the distribution between Transil® and plasma of any species of interest, the unbound fraction in the plasma of the respective animal species can be calculated in vitro. The respective plasma and buffer concentrations were determined via a radioactivity analysis. A detailed description of the method and its validation was published by Schuhmacher et al. (2).

[5] = system: patients with pulmonary hypertension; settings: clinical studies; cited from earlier work

CCOC(=O)c1ccc2c(n1)CCCC2NCCc1ccccc1OCc1ccc(-c2ccc(C(F)(F)F)cc2)cc1Cl (single isomer, unassigned) [Example 8a, Ethyl 5-{[2-(2-{[3-chloro-4′-(trifluoromethyl)biphenyl-4-yl]methoxy}phenyl)ethyl]amino}-5,6,7,8-tetrahydroquinoline-2-carboxylate]
PSD X10 [1]: X10: 0.2 μm, | PSD X50 [1]: X50: 1.7 μm, | PSD X90 [1]: X90: 4.2 μm

O=C(O)c1ccc(CCN(CCc2cc(F)ccc2OCc2ccc(-c3nc4cc(Cl)ccc4o3)cc2)C2CCCc3nc(C(=O)O)ccc32)cc1 (single isomer, unassigned) [compound 4, 5-{[2-(4-Carboxyphenyl)ethyl][2-(2-{[4-(5-chloro-1,3-benzoxazol-2-yl)benzyl]oxy}-5-fluorophenyl)-ethyl]amino}-5,6,7,8-tetrahydroquinoline-2-carboxylic Acid, reference compound]
duration of action ([2]; minipig model): sufficient duration of action

COC(=O)N(C)c1c(N)nc(-c2nn(Cc3ccccc3F)c3ncccc23)nc1N [Comparative example 2, Methyl-4,6-diamino-2-[1-(2-fluorobenzyl)-1H-pyrazolo[3,4-b]pyridine-3-yl]-5-pyrimidinyl(methyl)carbamate]
Fraction unbound (%) (plasma proteins [3]; Dog Beagle plasma): 17.1% | Fraction unbound (%) (plasma proteins [3]; Human (male) plasma): 4.97% | Fraction unbound (%) (plasma proteins [3]; Rat Wistar plasma): 15.7%

O=C(O)c1ccc(CCN(CCc2ccccc2OCc2ccc(-c3ccc(C(F)(F)F)cc3)cc2Cl)[C@H]2CCCc3nc(C(=O)O)ccc32)cc1 [Example 1, (5S)—{[2-(4-Carboxyphenyl)ethyl][2-(2-{[3-chloro-4′-(trifluoromethyl)biphenyl-4-yl]methoxy}phenyl)-ethyl]amino}-5,6,7,8-tetrahydroquinoline-2-carboxylic Acid Monohydrate II]
free fractions (comparison) (plasma proteins [4]): lowest free fractions

CC#CCC(C)[C@H](O)/C=C/[C@@H]1[C@H]2C/C(=C/CCCC(=O)O)C[C@H]2C[C@H]1O (stereo partly shown) [Ventavis ®]
PAP % changes vs prevalue ([2]; 10 μg/kg nominal dose, time 0 min): 0% | PAP % changes vs prevalue ([2]; 10 μg/kg nominal dose, time 10 min): −30.3% | PAP % changes vs prevalue ([2]; 10 μg/kg nominal dose, time 20 min): −20.7% | PAP % changes vs prevalue ([2]; 10 μg/kg nominal dose, time 30 min): −6.9% | PAP % changes vs prevalue ([2]; 10 μg/kg nominal dose, time 40 min): 1.7% | PAP % changes vs prevalue ([2]; 10 μg/kg nominal dose, time 50 min): 4.9%

CC#CCC(C)[C@H](O)/C=C/[C@@H]1[C@H]2C/C(=C/CCCC(=O)O)C[C@H]2C[C@H]1O (stereo partly shown) [Ventavis, reference compound]
maximal duration of action ([2]; 10 μg/kg nominal dose): about 40 min | duration of action on haemodynamics (PVR) [5]: about 60 min
